Columns and labels:
Assay type in all cases: in vivo
[1] = test system: downy bromegrass (Bromus tectorum); assay: Test C pre-/postemergence plant response
Method in brief: (§1)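 Formulated in a surfactant-containing non-phytotoxic solvent, compounds were tested under controlled growth conditions as preemergence and postemergence treatments. Ratings from 0 (no effect) to 100 (complete control) were assigned visually relative to controls 15 to 25 days later.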

[2] = test system: Italian ryegrass (Lolium multiflorum); assay: Test C pre-/postemergence plant response
Method in brief: as §1

[3] = test system: spring barley (Hordeum vulgare); assay: Test C pre-/postemergence plant response
Method in brief: as §1

[4] = test system: winter barley (Hordeum vulgare); assay: Test C pre-/postemergence plant response
Method in brief: as §1

[5] = test system: green foxtail (Setaria viridis); assay: Test C pre-/postemergence plant response
Method in brief: as §1

[6] = test system: winter wheat (Triticum aestivum); assay: Test C pre-/postemergence plant response
Method in brief: as §1

[7] = test system: wild mustard (Sinapis arvensis); assay: Test C pre-/postemergence plant response
Method in brief: as §1

[8] = test system: pigweed (Amaranthus retroflexus); assay: Test C pre-/postemergence plant response
Method in brief: as §1

[9] = test system: spring wheat (Triticum aestivum); assay: Test C pre-/postemergence plant response
Method in brief: as §1

[10] = test system: blackgrass (Alopecurus myosuroides); assay: Test C pre-/postemergence plant response
Method in brief: as §1

[11] = test system: Russian thistle (Salsola iberica); assay: Test B pre-/postemergence plant response; conditions: Preemergence
Method in brief: (§2)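 Visual scoring from 0 (no effect) to 100 (complete control) against untreated controls was done 13 to 15 days after greenhouse treatment. Chemicals were formulated in a surfactant-containing non-phytotoxic solvent and applied to soil preemergence or to 1- to 4-leaf (2-18 cm) plants postemergence.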

[12] = test system: large crabgrass (Digitaria sanguinalis); assay: Test B pre-/postemergence plant response; conditions: for Crabgrass, Large plant response rating: 8 g ai/ha
Method in brief: as §2

[13] = test system: cocklebur (Xanthium strumarium); assay: Test B pre-/postemergence plant response; conditions: for Cocklebur plant response rating: 8 g ai/ha
Method in brief: as §2

[14] = Postemergence, 8 g ai/ha, scale 0 to 100, 0 no effect, 100 complete control
[15] = Postemergence, 16 g ai/ha, scale 0 to 100, 0 no effect, 100 complete control
[16] = Postemergence, 31 g ai/ha, scale 0 to 100, 0 no effect, 100 complete control
[17] = Postemergence, 62 g ai/ha, scale 0 to 100, 0 no effect, 100 complete control
[18] = Preemergence, 8 g ai/ha, scale 0 to 100 (0 no effect, 100 complete control)
[19] = Preemergence, 16 g ai/ha, scale 0 to 100 (0 no effect, 100 complete control)
[20] = Preemergence, 31 g ai/ha, scale 0 to 100 (0 no effect, 100 complete control)
[21] = Preemergence, 62 g ai/ha, scale 0 to 100, 0 no effect, 100 complete control
[22] = Postemergence, 16 g ai/ha, scale 0 to 100
[23] = Preemergence, 31 g ai/ha, 0 to 100 scale, 0 no effect, 100 complete control
[24] = Preemergence, 62 g ai/ha, scale 0 to 100

Cc1cc(-c2ccc(C(F)(F)F)c(F)c2)nn1-c1c(O)c(C(F)(F)F)nn(C)c1=O [Compound 44]
Plant response rating, Bromegrass, Downy [1, 14]: 15 | Plant response rating, Bromegrass, Downy [1, 15]: 40 | Plant response rating, Bromegrass, Downy [1, 16]: 65 | Plant response rating, Bromegrass, Downy [1, 17]: 75 | Plant response rating, Bromegrass, Downy [1, 18]: 0 | Plant response rating, Bromegrass, Downy [1, 19]: 20 | Plant response rating, Bromegrass, Downy [1, 20]: 50 | Plant response rating, Bromegrass, Downy [1, 21]: 80 | Plant response rating, Ryegrass, Italian [2, 14]: 90 | Plant response rating, Ryegrass, Italian [2, 15]: 98 | Plant response rating, Ryegrass, Italian [2, 16]: 100 | Plant response rating, Ryegrass, Italian [2, 17]: 100 | Plant response rating, Ryegrass, Italian [2, 18]: 90 | Plant response rating, Ryegrass, Italian [2, 19]: 100 | Plant response rating, Ryegrass, Italian [2, 20]: 100 | Plant response rating, Ryegrass, Italian [2, 21]: 100 | Plant response rating, Barley, Spring [3, 14]: 60 | Plant response rating, Barley, Spring [3, 15]: 95 | Plant response rating, Barley, Spring [3, 16]: 95 | Plant response rating, Barley, Spring [3, 17]: 98 | Plant response rating, Barley, Spring [3, 18]: 0 | Plant response rating, Barley, Spring [3, 19]: 60 | Plant response rating, Barley, Spring [3, 20]: 60 | Plant response rating, Barley, Spring [3, 21]: 75 | Plant response rating, Barley, Winter [4, 14]: 20 | Plant response rating, Barley, Winter [4, 15]: 75 | Plant response rating, Barley, Winter [4, 16]: 90 | Plant response rating, Barley, Winter [4, 17]: 95 | Plant response rating, Barley, Winter [4, 18]: 0 | Plant response rating, Barley, Winter [4, 19]: 50 | Plant response rating, Barley, Winter [4, 20]: 75 | Plant response rating, Barley, Winter [4, 21]: 75 | Plant response rating, Foxtail, Green [5, 14]: 50 | Plant response rating, Foxtail, Green [5, 15]: 95 | Plant response rating, Foxtail, Green [5, 16]: 98 | Plant response rating, Foxtail, Green [5, 17]: 100 | Plant response rating, Foxtail, Green [5, 18]: 15 | Plant response rating, Foxtail, Green [5, 19]: 90 | Plant response rating, Foxtail, Green [5, 20]: 100 | Plant response rating, Foxtail, Green [5, 21]: 100 | Plant response rating, Wheat, Winter [6, 14]: 75 | Plant response rating, Wheat, Winter [6, 15]: 80 | Plant response rating, Wheat, Winter [6, 16]: 95 | Plant response rating, Wheat, Winter [6, 17]: 98 | Plant response rating, Wheat, Winter [6, 18]: 40 | Plant response rating, Wheat, Winter [6, 19]: 65 | Plant response rating, Wheat, Winter [6, 21]: 70 | Plant response rating, Mustard, Wild [7, 14]: 0 | Plant response rating, Mustard, Wild [7, 15]: 0 | Plant response rating, Mustard, Wild [7, 16]: 0 | Plant response rating, Mustard, Wild [7, 17]: 0 | Plant response rating, Mustard, Wild [7, 18]: 0 | Plant response rating, Mustard, Wild [7, 19]: 0 | Plant response rating, Mustard, Wild [7, 20]: 0 | Plant response rating, Pigweed [8, 14]: 0 | Plant response rating, Pigweed [8, 15]: 0 | Plant response rating, Pigweed [8, 16]: 0 | Plant response rating, Pigweed [8, 17]: 0 | Plant response rating, Pigweed [8, 18]: 0 | Plant response rating, Pigweed [8, 19]: 20 | Plant response rating, Pigweed [8, 20]: 20 | Plant response rating, Pigweed [8, 21]: 20 | Plant response rating, Wheat, Spring [9, 14]: 70 | Plant response rating, Wheat, Spring [9, 15]: 95 | Plant response rating, Wheat, Spring [9, 16]: 95 | Plant response rating, Wheat, Spring [9, 17]: 100 | Plant response rating, Wheat, Spring [9, 18]: 0 | Plant response rating, Wheat, Spring [9, 19]: 20 | Plant response rating, Wheat, Spring [9, 20]: 70 | Plant response rating, Wheat, Spring [9, 21]: 75 | Plant response rating, Blackgrass [10, 14]: 90 | Plant response rating, Blackgrass [10, 15]: 98 | Plant response rating, Blackgrass [10, 16]: 100 | Plant response rating, Blackgrass [10, 17]: 100 | Plant response rating, Blackgrass [10, 19]: 25 | Plant response rating, Blackgrass [10, 20]: 100 | Plant response rating, Blackgrass [10, 21]: 100 | Plant response rating, Russian Thistle ([11]; 16 g ai/ha, scale 0 to 100 (0 no effect, 100 complete control)): 0 | Plant response rating, Russian Thistle ([11]; 31 g ai/ha, scale 0 to 100 (0 no effect, 100 complete control)): 0 | Plant response rating, Russian Thistle ([11]; 62 g ai/ha, scale 0 to 100): 0 | Russian Thistle plant response rating ([11]; 8 g ai/ha, scale 0 to 100): 0 | Crabgrass, Large plant response rating ([12]; postemergence, 0-100 scale): 60 | Plant response rating, Crabgrass, Large [12, 22]: 65 | Plant response rating, Crabgrass, Large [12, 16]: 90 | Plant response rating, Crabgrass, Large [12, 17]: 98 | Plant response rating, Crabgrass, Large [12, 19]: 0 | Plant response rating, Crabgrass, Large [12, 23]: 0 | Plant response rating, Crabgrass, Large [12, 24]: 0 | Crabgrass, Large plant response rating ([12]; Preemergence, scale 0 to 100): 0 | Cocklebur plant response rating ([13]; postemergence, 0-100 scale): 0 | Plant response rating, Cocklebur [13, 22]: 0 | Plant response rating, Cocklebur [13, 16]: 0 | Plant response rating, Cocklebur [13, 17]: 0 | Plant response rating, Cocklebur [13, 19]: 0 | Plant response rating, Cocklebur [13, 23]: 0 | Plant response rating, Cocklebur [13, 24]: 0 | Cocklebur plant response rating ([13]; Preemergence, scale 0 to 100): 0
